Our source for the IC50 values is US20170334899A1, “AMINO-SUBSTITUTED ISOTHIAZOLES” (Bayer Pharma Aktiengesellschaft, priority 2014, published 2017).

Each structure is given as a SMILES string.

Assay type in all cases: cell-based
In test [1] the test system is HeLa-MaTu-ADR. Nature of the test: Proliferation assay (crystal violet), HeLa-MaTu-ADR. The conditions noted are these: 96 h; HeLa-MaTu-ADR cells; 4 days incubation; crystal violet staining; read-out: IC50 inhibition of proliferation, HeLa-MaTu-ADR. The method, then:
(§1) Cultivated tumor cells (cells were ordered from ATCC, except HeLa-MaTu and HeLa-MaTu-ADR, which were ordered from EPO-GmbH, Berlin) were plated at a density of 1000 to 5000 cells/well, depending on the growth rate of the respective cell line, in a 96-well multititer plate in 200 μL of their respective growth medium supplemented 10% fetal calf serum. After 24 hours, the cells of one plate (zero-point plate) were stained with crystal violet (see below), while the medium of the other plates was replaced by fresh culture medium (200 μl), to which the test substances were added in various concentrations (0 μM, as well as in the range of 0.001-10 μM; the final concentration of the solvent dimethyl sulfoxide was 0.5%). The cells were incubated for 4 days in the presence of test substances. Cell proliferation was determined by staining the cells with crystal violet: the cells were fixed by adding 20 μl/measuring point of an 11% glutaric aldehyde solution for 15 minutes at room temperature. After three washing cycles of the fixed cells with water, the plates were dried at room temperature. The cells were stained by adding 100 μl/measuring point of a 0.1% crystal violet solution (pH 3.0). After three washing cycles of the stained cells with water, the plates were dried at room temperature. The dye was dissolved by adding 100 μl/measuring point of a 10% acetic acid solution. Absorbtion was determined by photometry at a wavelength of 595 nm. The change of cell number, in percent, was calculated by normalization of the measured values to the aborbtion values of the zero-point plate (=0%) and the absorbtion of the untreated (0 μm) cells (=100%). The IC50 values were determined by means of a 4 parameter fit.

Test [2] relates to NCI-H460. Nature of the test: Proliferation assay (crystal violet), NCI-H460. The conditions noted are these: Homo sapiens, 96 h; NCI-H460 cells; 4 days incubation; crystal violet staining; read-out: IC50 inhibition of proliferation, NCI-H460. As for the experimental part:
as §1

Test [3] has as its system DU145. Kind of test: Proliferation assay (crystal violet), DU145. The conditions noted are these: Homo sapiens, DU-145, 96 h; DU145 cells; 4 days incubation; crystal violet staining; read-out: IC50 inhibition of proliferation, DU145. As for the experimental part:
as §1

In test [4] the test system is Caco-2. Kind of test: Proliferation assay (crystal violet), Caco-2. The note with it: Homo sapiens, 96 h; Caco-2 cells; 4 days incubation; crystal violet staining; read-out: IC50 inhibition of proliferation, Caco2. As for the experimental part:
as §1

The subject of test [5] is B16F10. Kind of test: Proliferation assay (crystal violet), B16F10. The conditions noted are these: Mus musculus, B16-F10, 96 h; B16F10 cells; 4 days incubation; crystal violet staining; read-out: IC50 inhibition of proliferation, B16F10. The method, then:
as §1

For the compound `Cc1nsc(Nc2ccc(C#N)cn2)c1C(=O)Nc1ccc(C(=O)OC(C)(C)C)cc1` [Example 98, tert-Butyl 4-[({5-[(5-cyanopyridin-2-yl)amino]-3-methyl-1,2-thiazol-4-yl}carbonyl)-amino]benzoate], the IC50 in test [1] amounted to 150 nM; in test [2], 170 nM; in test [3], 460 nM; in test [4], 110 nM; in test [5], 460 nM.

Consider `Cc1nsc(Nc2cnc(C(F)(F)F)cn2)c1C(=O)Nc1ccc(OC2CCN(CCC(F)(F)F)CC2)nc1` [Example 10, 3-Methyl-5-{[5-(trifluoromethyl)pyrazin-2-yl]amino}-N-(6-{[1-(3,3,3-trifluoropropyl)-piperidin-4-yl]oxy}pyridin-3-yl)-1,2-thiazole-4-carboxamide], for which the IC50 was found to be 57 nM in test [1]; 170 nM in test [2]; 140 nM in test [3]; 180 nM in test [4]; 300 nM in test [5].

`Cc1nsc(Nc2cnc3ccccc3n2)c1C(=O)Nc1cccc(-c2nc(C(C)(C)C)no2)c1` [Example 108, N-[3-(3-tert-Butyl-1,2,4-oxadiazol-5-yl)phenyl]-3-methyl-5-(quinoxalin-2-ylamino)-1,2-thiazole-4-carboxamide]: the IC50 worked out at 330 nM in test [1]; 290 nM in test [2]; 570 nM in test [3]; 300 nM in test [4]; 700 nM in test [5].

Turning to `Cc1nsc(Nc2cnc(C(F)(F)F)cn2)c1C(=O)Nc1ccc(OCC2CCN(C(=O)OC(C)(C)C)C2)nc1` (stereo not drawn) [Example 109, tert-Butyl 3-{[(5-{[(3-methyl-5-{[5-(trifluoromethyl)pyrazin-2-yl]amino}-1,2-thiazol-4-yl)carbonyl]amino}pyridin-2-yl)oxy]methyl}pyrrolidine-1-carboxylate], the IC50 is 170 nM in test [1]; 230 nM in test [2]; 660 nM in test [3]; 280 nM in test [4]; 350 nM in test [5].

Take `Cc1nsc(Nc2cnc(C(F)(F)F)cn2)c1C(=O)Nc1ccc(OC2CCN(CCF)CC2)nc1` [Example 7, N-(6-{[1-(2-Fluoroethyl)piperidin-4-yl]oxy}pyridin-3-yl)-3-methyl-5-{[5-(trifluoromethyl)pyrazin-2-yl]amino}-1,2-thiazole-4-carboxamide]: the IC50 worked out at 520 nM in test [1]; 810 nM in test [2]; 1400 nM in test [3]; 920 nM in test [4]; 1500 nM in test [5].

As for `Cc1nsc(Nc2cncc(C(F)(F)F)n2)c1C(=O)Nc1ccc(OCC2CCN(C(=O)OC(C)(C)C)C2)nc1` (stereo not drawn) [Example 110, tert-Butyl 3-{[(5-{[(3-methyl-5-{[6-(trifluoromethyl)pyrazin-2-yl]amino}-1,2-thiazol-4-yl)carbonyl]amino}pyridin-2-yl)oxy]methyl}pyrrolidine-1-carboxylate], the IC50 in test [1] is 950 nM; in test [2] it was 360 nM; in test [3], 2000 nM; in test [4], 1500 nM; in test [5], 800 nM.

In the case of `Cc1nsc(Nc2cnc3ccccc3n2)c1C(=O)Nc1ccc(Oc2cccc(C(F)(F)F)c2)nc1` [Example 117, 3-Methyl-5-(quinoxalin-2-ylamino)-N-{6-[3-(trifluoromethyl)phenoxy]pyridin-3-yl}-1,2-thiazole-4-carboxamide], the IC50 in test [1] was 660 nM; in test [2], 300 nM; in test [3] it was 310 nM; in test [4] it was 100 nM; in test [5], 730 nM.

Take `Cc1nsc(Nc2cnc(C(F)(F)F)cn2)c1C(=O)Nc1ccc(OC2CCN(CC(F)(F)F)CC2)nc1` [Example 9, -Methyl-N-(6-{[1-(2,2,2-trifluoroethyl)piperidin-4-yl]oxy}pyridin-3-yl)-5-{[5-(trifluoromethyl)pyrazin-2-yl]amino}-1,2-thiazole-4-carboxamide]: the IC50 in test [1] came out at 130 nM; in test [2], 98 nM; in test [3], 300 nM; in test [4] it was 160 nM; in test [5], 190 nM.

Turning to `Cc1nsc(Nc2ccc(C#N)cn2)c1C(=O)Nc1ccc(Oc2cccc(C(F)(F)F)c2)nc1` [Example 118, 5-[(5-Cyanopyridin-2-yl)amino]-3-methyl-N-{6-[3-(trifluoromethyl)phenoxy]pyridin-3-yl}-1,2-thiazole-4-carboxamide], the IC50 in test [1] was found to be 320 nM; in test [2], 480 nM; in test [3] it was 750 nM; in test [4] it was 340 nM; in test [5] it was 380 nM.

As to `Cc1nsc(Nc2cnc(C(F)(F)F)cn2)c1C(=O)Nc1ccc(C(=O)OC(C)(C)C)cc1` [Example 96, tert-Butyl 4-{[(3-methyl-5-{[5-(trifluoromethyl)pyrazin-2-yl]amino}-1,2-thiazol-4-yl)carbonyl]amino}benzoate], the IC50 in test [1] was 410 nM; in test [2] it was 740 nM; in test [3] it was 800 nM; in test [4] it was 330 nM; in test [5], 1100 nM.

Consider `Cc1nsc(Nc2cncc(C(F)(F)F)n2)c1C(=O)Nc1ccc(OC2CCN(C(=O)OC(C)(C)C)CC2)nc1` [Example 12, tert-Butyl 4-[(5-{[(3-methyl-5-{[6-(trifluoromethyl)pyrazin-2-yl]amino}-1,2-thiazol-4-yl)carbonyl]amino}pyridin-2-yl)oxy]piperidine-1-carboxylate], for which the IC50 in test [1] was 640 nM; in test [2], 270 nM; in test [3], 1100 nM; in test [4] it was 470 nM; in test [5] it was 400 nM.

As for `Cc1nsc(Nc2cnc(C(F)(F)F)cn2)c1C(=O)Nc1ccc(OC2CCN(CC(F)F)CC2)nc1` [Example 8, N-(6-{[1-(2,2-Difluoroethyl)piperidin-4-yl]oxy}pyridin-3-yl)-3-methyl-5-{[5-(trifluoromethyl)pyrazin-2-yl]amino}-1,2-thiazole-4-carboxamide], the IC50 came out at 110 nM in test [1]; 100 nM in test [2]; 250 nM in test [3]; 150 nM in test [4]; 210 nM in test [5].
